The target in this experiment is T1, full-length ATR (Homo sapiens, UniProt Q13535).
T1 construct: in the presence of 5 nM full-length ATR
T1 sequence (Q13535 whole entry): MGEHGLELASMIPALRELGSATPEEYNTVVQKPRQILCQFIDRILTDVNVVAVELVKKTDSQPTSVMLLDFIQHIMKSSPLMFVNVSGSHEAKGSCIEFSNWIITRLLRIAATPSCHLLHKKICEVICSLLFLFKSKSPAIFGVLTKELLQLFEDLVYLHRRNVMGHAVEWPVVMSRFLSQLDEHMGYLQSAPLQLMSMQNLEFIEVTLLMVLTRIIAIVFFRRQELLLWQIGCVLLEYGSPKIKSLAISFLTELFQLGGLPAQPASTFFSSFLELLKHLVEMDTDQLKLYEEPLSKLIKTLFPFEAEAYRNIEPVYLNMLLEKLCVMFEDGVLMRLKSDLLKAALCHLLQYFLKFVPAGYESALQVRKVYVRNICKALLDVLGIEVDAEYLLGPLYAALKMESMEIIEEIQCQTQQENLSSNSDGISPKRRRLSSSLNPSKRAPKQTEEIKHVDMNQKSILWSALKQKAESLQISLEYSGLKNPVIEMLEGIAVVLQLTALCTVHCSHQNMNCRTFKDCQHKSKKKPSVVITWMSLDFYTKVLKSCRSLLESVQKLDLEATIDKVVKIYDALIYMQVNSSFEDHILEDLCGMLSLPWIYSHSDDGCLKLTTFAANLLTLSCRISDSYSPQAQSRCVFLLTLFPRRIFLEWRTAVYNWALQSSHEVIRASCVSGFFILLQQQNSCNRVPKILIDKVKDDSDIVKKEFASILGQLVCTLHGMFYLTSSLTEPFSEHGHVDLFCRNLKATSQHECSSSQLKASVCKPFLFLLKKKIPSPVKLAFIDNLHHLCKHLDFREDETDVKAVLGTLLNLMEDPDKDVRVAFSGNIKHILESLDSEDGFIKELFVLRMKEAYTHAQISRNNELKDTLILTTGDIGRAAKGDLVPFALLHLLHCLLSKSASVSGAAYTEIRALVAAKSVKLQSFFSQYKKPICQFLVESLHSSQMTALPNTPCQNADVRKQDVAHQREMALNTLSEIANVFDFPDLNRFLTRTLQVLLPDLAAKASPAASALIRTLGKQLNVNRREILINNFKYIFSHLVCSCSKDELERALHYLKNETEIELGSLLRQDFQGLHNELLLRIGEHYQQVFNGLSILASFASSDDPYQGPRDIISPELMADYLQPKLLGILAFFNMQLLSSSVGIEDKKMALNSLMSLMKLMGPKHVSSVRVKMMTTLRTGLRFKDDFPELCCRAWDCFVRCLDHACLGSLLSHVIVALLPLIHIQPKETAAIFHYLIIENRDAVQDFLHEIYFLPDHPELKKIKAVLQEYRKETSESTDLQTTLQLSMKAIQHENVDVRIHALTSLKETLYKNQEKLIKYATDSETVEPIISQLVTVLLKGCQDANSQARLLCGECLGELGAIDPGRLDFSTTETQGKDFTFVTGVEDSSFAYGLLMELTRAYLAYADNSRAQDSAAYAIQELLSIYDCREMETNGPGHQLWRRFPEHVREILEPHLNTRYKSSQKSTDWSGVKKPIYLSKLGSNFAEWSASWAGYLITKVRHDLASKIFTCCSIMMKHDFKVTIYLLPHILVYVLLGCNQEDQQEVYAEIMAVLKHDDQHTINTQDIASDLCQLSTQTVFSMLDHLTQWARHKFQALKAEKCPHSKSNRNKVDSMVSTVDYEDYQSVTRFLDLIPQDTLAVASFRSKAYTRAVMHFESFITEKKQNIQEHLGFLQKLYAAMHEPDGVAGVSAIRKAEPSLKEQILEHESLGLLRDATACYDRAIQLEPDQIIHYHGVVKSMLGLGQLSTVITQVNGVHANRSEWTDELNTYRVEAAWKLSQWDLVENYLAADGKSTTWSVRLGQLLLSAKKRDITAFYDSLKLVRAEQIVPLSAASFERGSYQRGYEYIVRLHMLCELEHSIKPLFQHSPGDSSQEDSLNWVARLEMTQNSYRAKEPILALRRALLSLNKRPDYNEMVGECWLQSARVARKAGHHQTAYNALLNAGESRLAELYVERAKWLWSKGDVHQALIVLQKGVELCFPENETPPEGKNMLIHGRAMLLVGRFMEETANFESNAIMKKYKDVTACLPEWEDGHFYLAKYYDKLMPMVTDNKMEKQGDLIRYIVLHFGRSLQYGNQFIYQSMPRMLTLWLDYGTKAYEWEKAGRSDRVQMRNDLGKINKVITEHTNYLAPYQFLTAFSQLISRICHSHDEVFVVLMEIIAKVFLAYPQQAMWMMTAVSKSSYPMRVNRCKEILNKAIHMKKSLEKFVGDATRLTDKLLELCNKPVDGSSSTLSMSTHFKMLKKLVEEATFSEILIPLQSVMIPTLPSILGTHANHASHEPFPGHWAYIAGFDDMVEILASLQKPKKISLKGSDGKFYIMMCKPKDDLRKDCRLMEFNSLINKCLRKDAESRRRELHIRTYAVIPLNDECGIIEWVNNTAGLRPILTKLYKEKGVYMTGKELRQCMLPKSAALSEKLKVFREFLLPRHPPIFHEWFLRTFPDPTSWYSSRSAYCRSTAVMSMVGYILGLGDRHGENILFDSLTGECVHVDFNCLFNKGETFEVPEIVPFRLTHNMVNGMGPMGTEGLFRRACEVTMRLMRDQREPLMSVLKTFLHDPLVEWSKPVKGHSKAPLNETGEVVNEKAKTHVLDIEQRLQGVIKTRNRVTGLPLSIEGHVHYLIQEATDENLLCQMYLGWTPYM
The experiment can be described thus: ATR Inhibition Assay (radioactive-phosphate incorporation). Conditions: Ki(app); 5 nM full-length ATR, 10 μM ATP, 800 μM target peptide, 25° C. Format: biochemical. The essentials: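 After a 10-min pre-incubation of compound with 5 nM enzyme at 25 °C, ATP was added to start the reaction (final 10 μM [γ-33P]ATP, 800 μM peptide; Tris/HCl pH 7.5, MgCl2, DTT), which ran 24 h. Incorporated 33P was captured on phosphocellulose filters, and Ki(app) was fitted by non-linear regression.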
Take `COCCOCC(=O)N1CCN(c2cnc(N)c(-c3nnc(-c4ccccc4)o3)n2)CC1` [Compound I-178, 1-(4-(5-amino-6-(5-phenyl-1,3,4-oxadiazol-2-yl)pyrazin-2-yl)piperazin-1-yl)-2-(2-methoxyethoxy)ethanone]: the Ki fell in the range of 0.1 to 1 µM.
For `CCC(=O)N1CCN(c2cnc(N)c(-c3nnc(-c4ccc(CNC)cc4)o3)n2)CC1` [Compound I-327, 1-[4-[5-Amino-6-[5-[4-(methylaminomethyl)phenyl]-1,3,4-oxadiazol-2-yl]pyrazin-2-yl]piperazin-1-yl]propan-1-one] the value was less than 0.1 µM; for `CCS(=O)(=O)N1CC2CN(c3cnc(N)c(-c4nnc(-c5ccccc5)o4)n3)CC2C1` (stereo not shown) [Compound I-305, 5-(2-ethylsulfonyl-1,3,3a,4,6,6a-hexahydropyrrolo[3,4-c]pyrrol-5-yl)-3-(5-phenyl-1,3,4-oxadiazol-2-yl)pyrazin-2-amine], 0.1 to 1 µM.
With `COCCOC(=O)N1CCN(c2cnc(N)c(C(=O)Nc3ccccn3)n2)CC1` [Compound I-237, 2-methoxyethyl 4-(5-amino-6-(pyridin-2-ylcarbamoyl)pyrazin-2-yl)piperazine-1-carboxylate], the Ki was in the range of 1 to 10 µM.
In the case of `Nc1ncc(C2=CCN(C(=O)c3ccccc3)CC2)nc1-c1nc2ccccc2[nH]1` [Compound I-82, (4-(5-amino-6-(1H-benzo[d]imidazol-2-yl)pyrazin-2-yl)-5,6-dihydropyridin-1(2H)-yl)(phenyl)methanone] it was less than 0.1 µM.
In the case of `CC(=O)C1(c2ccccc2)CCN(c2cnc(N)c(-c3nc4ccc(C)cc4[nH]3)n2)CC1` [Compound I-44, 1-(1-(5-amino-6-(6-methyl-1H-benzo[d]imidazol-2-yl)pyrazin-2-yl)-4-phenylpiperidin-4-yl)ethanone] it was 1 to 10 µM.
As for `Nc1ncc(N2CCN(S(=O)(=O)c3cccs3)CC2)nc1-c1nc2ccccc2[nH]1` [Compound I-104, 3-(1H-benzo[d]imidazol-2-yl)-5-(4-(thiophen-2-ylsulfonyl)piperazin-1-yl)pyrazin-2-amine], the Ki is 0.1 to 1 µM.
In the case of `Nc1ncc(-n2ccc(=O)cc2)nc1-c1nnc(-c2ccccc2)o1` [Compound I-286, 1-[5-amino-6-(5-phenyl-1,3,4-oxadiazol-2-yl)pyrazin-2-yl]pyridin-4-one] it was less than 0.1 µM; in that of `Cc1ccc2nc(-c3nc(N4CCCC(N(C)C)C4)cnc3N)[nH]c2c1` (stereo not shown) [Compound I-51, 5-(3-(dimethylamino)piperidin-1-yl)-3-(6-methyl-1H-benzo[d]imidazol-2-yl)pyrazin-2-amine], 1 to 10 µM; in that of `Nc1ncc(N2CCN(S(=O)(=O)c3ccoc3)CC2)nc1C(=O)Nc1ccccn1` [Compound I-119, 3-amino-6-(4-(furan-3-ylsulfonyl)piperazin-1-yl)-N-(pyridin-2-yl)pyrazine-2-carboxamide], 0.1 to 1 µM.
In the case of `Cn1cnc(S(=O)(=O)N2CC=C(c3cnc(N)c(-c4nc5ccccc5[nH]4)n3)CC2)c1` [Compound I-94, 3-(1H-benzo[d]imidazol-2-yl)-5-(1-(1-methyl-1H-imidazol-4-ylsulfonyl)-1,2,3,6-tetrahydropyridin-4-yl)pyrazin-2-amine] it was less than 0.1 µM; in that of `Nc1ncc(C2=CCN(S(=O)(=O)c3ccoc3)CC2)nc1-c1nnc(-c2ccccc2)o1` [Compound I-123, 5-(1-(furan-3-ylsulfonyl)-1,2,3,6-tetrahydropyridin-4-yl)-3-(5-phenyl-1,3,4-oxadiazol-2-yl)pyrazin-2-amine], less than 0.1 µM; in that of `COC(=O)N1CC=C(c2cnc(N)c(-c3nnc(-c4ccccc4)o3)n2)CC1` [Compound I-228, methyl 4-(5-amino-6-(5-phenyl-1,3,4-oxadiazol-2-yl)pyrazin-2-yl)-5,6-dihydropyridine-1(2H)-carboxylate], less than 0.1 µM.
In the case of `Nc1ncc(C2=CCN(C(=O)OCc3ccccc3)CC2)nc1-c1nc2ccccc2[nH]1` [Compound I-261, benzyl 4-(5-amino-6-(1H-benzo[d]imidazol-2-yl)pyrazin-2-yl)-5,6-dihydropyridine-1(2H)-carboxylate] it was 0.1 to 1 µM; in that of `Nc1ncc(N2CCN(C(=O)N3CCOCC3)CC2)nc1C(=O)Nc1ccccn1` [Compound I-114, 3-amino-6-(4-(morpholine-4-carbonyl)piperazin-1-yl)-N-(pyridin-2-yl)pyrazine-2-carboxamide], 1 to 10 µM; in that of `CCS(=O)(=O)N1CCN(c2cnc(N)c(-c3nnc(-c4sccc4C)o3)n2)CC1` [Compound I-294, 5-(4-ethylsulfonylpiperazin-1-yl)-3-[5-(3-methyl-2-thienyl)-1,3,4-oxadiazol-2-yl]pyrazin-2-amine], less than 0.1 µM.
On to `CCNC(=O)[C@H]1CCCN1c1cnc(N)c(-c2nnc(-c3ccc(CNC)cc3)o2)n1` [Compound I-357, (2R)-1-[5-Amino-6-[5-[4-(methylaminomethyl)phenyl]-1,3,4-oxadiazol-2-yl]pyrazin-2-yl]-N-ethyl-pyrrolidine-2-carboxamide], for which the Ki lay in the range of 0.1 to 1 µM.
Consider `Nc1ncc(N2CCN(C(=O)c3ccccc3)CC2)nc1C(=O)Nc1ccccn1` [Compound I-109, 3-amino-6-(4-(phenylcarbonyl)piperazin-1-yl)-N-(pyridin-2-yl)pyrazine-2-carboxamide], for which the Ki was 1 to 10 µM.
As to `Nc1ncc(C2=CCN(C(=O)N3CCCCC3)CC2)nc1-c1nnc(-c2ccccc2)o1` [Compound I-236, (4-(5-amino-6-(5-phenyl-1,3,4-oxadiazol-2-yl)pyrazin-2-yl)-5,6-dihydropyridin-1(2H)-yl)(piperidin-1-yl)methanone], the Ki is less than 0.1 µM.
As for `CCS(=O)(=O)N1CCN(c2cnc(N)c(-c3nc(-c4ccccc4)no3)n2)CC1` [Compound I-19, 5-(4-(ethylsulfonyl)piperazin-1-yl)-3-(3-phenyl-1,2,4-oxadiazol-5-yl)pyrazin-2-amine], the Ki lay in the range of 0.1 to 1 µM.
For `CN(C)S(=O)(=O)N1CCN(c2cnc(N)c(-c3nnc(-c4ccccc4)o3)n2)CC1` [Compound I-83, 4-(5-amino-6-(5-phenyl-1,3,4-oxadiazol-2-yl)pyrazin-2-yl)-N,N-dimethylpiperazine-1-sulfonamide] the value was 0.1 to 1 µM; for `CCC(=O)N1C[C@@H]2C[C@@H]1CN2c1cnc(N)c(-c2nnc(-c3ccc(CNC)cc3)o2)n1` [Compound I-334, 1-[(1S,4R)-2-[5-Amino-6-[5-[4-(methylaminomethyl)phenyl]-1,3,4-oxadiazol-2-yl]pyrazin-2-yl]-2,5-diazabicyclo[2.2.1]heptan-5-yl]propan-1-one], 0.1 to 1 µM.
Consider `Nc1ncc(N2CCN(CCO)CC2)nc1-c1nnc(-c2ccccc2)o1` [Compound I-306, 2-[4-[5-amino-6-(5-phenyl-1,3,4-oxadiazol-2-yl)pyrazin-2-yl]piperazin-1-yl]ethanol], for which the Ki was 1 to 10 µM.
For `CCC(=O)N1CC=C(c2cnc(N)c(-c3nc4ccccc4[nH]3)n2)CC1` [Compound I-309, 1-[4-[5-amino-6-(1H-benzimidazol-2-yl)pyrazin-2-yl]-3,6-dihydro-2H-pyridin-1-yl]propan-1-one], the Ki was less than 0.1 µM.
For `CCS(=O)(=O)N1CCN(c2cnc(N)c(-c3nnc(-c4ccc(CNC)cc4)o3)n2)CC1(C)C` [Compound I-328, 5-(4-Ethylsulfonyl-3,3-dimethyl-piperazin-1-yl)-3-[5-[4-(methylaminomethyl)phenyl]-1,3,4-oxadiazol-2-yl]pyrazin-2-amine] the value was 0.1 to 1 µM.

These data come from patent publication US8410112B2, “Compounds useful as inhibitors of ATR kinase” (Vertex Pharmaceuticals Incorporated, priority 2008, dated 2013).
